From the supplement of paper PMC13380429

Experiments:
Conditions in all cases: 72 h
[1] = tested on: Caco-2; assay: cell viability relative to DMSO; higher = less toxic
[2] = tested on: Calu-3; assay: as above
[3] = tested on: Caco-2; assay: relative viability EC50 (midpoint between 100% and the lowest measured viability); higher = less toxic
[4] = tested on: Calu-3; assay: as above
[5] = tested on: Caco-2; assay: drug sensitivity score (DSS) for viability; higher = more toxic; extreme values may be limits of the assay
[6] = tested on: Calu-3; assay: as above
[7] = tested on: HepG2; assay: as above
[8] = tested on: Vero E6; assay: as above
[9] = tested on: Vero E6; assay: cell viability relative to DMSO; higher = less toxic
[10] = tested on: Vero E6; assay: relative viability EC50 (midpoint between 100% and the lowest measured viability); higher = less toxic
[11] = tested on: HepG2; assay: cell viability relative to DMSO; higher = less toxic
[12] = tested on: HepG2; assay: relative viability EC50 (midpoint between 100% and the lowest measured viability); higher = less toxic

SMILES | cell viability ([1]; 1 nM) [%] | cell viability ([1]; 10 nM) [%] | cell viability ([1]; 100 nM) [%] | cell viability ([1]; 1000 nM) [%] | cell viability ([1]; 10000 nM) [%] | cell viability ([2]; 1 nM) [%] | cell viability ([2]; 10 nM) [%] | cell viability ([2]; 100 nM) [%] | cell viability ([2]; 1000 nM) [%] | cell viability ([2]; 10000 nM) [%] | relative viability EC50 [3] [µM] | relative viability EC50 [4] [µM] | drug sensitivity score [5] | drug sensitivity score [6] | drug sensitivity score [7] | drug sensitivity score [8] | cell viability ([9]; 1 nM) [%] | cell viability ([9]; 10 nM) [%] | cell viability ([9]; 100 nM) [%] | cell viability ([9]; 1000 nM) [%] | cell viability ([9]; 10000 nM) [%] | relative viability EC50 [10] [µM] | cell viability ([11]; 1 nM) [%] | cell viability ([11]; 10 nM) [%] | cell viability ([11]; 100 nM) [%] | cell viability ([11]; 1000 nM) [%] | cell viability ([11]; 10000 nM) [%] | relative viability EC50 [12] [µM]
CCCN1CC(NS(=O)(=O)N(CC)CC)CC2Cc3c(O)cccc3CC21 (stereo not given) [quinagolide] | 107 | 104 | 106 | 98.9 | 96.3 | 85.9 | 110 | 95.8 | 97.5 | 86.1 | > 10 | > 10 | 0 | 0.3 | – | – | – | – | – | – | – | – | – | – | – | – | – | –
CC(=O)NS(=O)(=O)c1ccc(N)cc1 [sulfacetamide] | – | – | – | – | – | – | – | – | – | – | – | – | – | 0 | 0 | 0 | – | – | – | – | – | – | – | – | – | – | – | –
C=CCN1CCc2nc(N)sc2CC1 [talipexole] | 102 | 104 | 99.2 | 106 | 102 | – | – | – | – | – | > 10 | – | 0 | – | – | 0 | 103 | 107 | 98.1 | 100 | 100 | > 10 | – | – | – | – | – | –
COc1c(O[C@@H]2O[C@H](CO)[C@@H](O)[C@H](O)[C@H]2O)cc2c(c1OC)-c1ccc(SC)c(=O)cc1[C@@H](NC(C)=O)CC2 [thiocolchicoside] | 96.1 | 96.4 | 82.7 | 102 | 94.5 | 102 | 93.2 | 98.7 | 102 | 97.8 | > 10 | > 10 | 0 | 0 | 0 | 0 | 102 | 104 | 99.1 | 106 | 103 | > 10 | 97 | 100 | 91.4 | 97.2 | 90.9 | > 10
O=C(O)CCCC[C@@H]1CCSS1 [thioctic-acid] | – | – | – | – | – | – | – | – | – | – | – | – | – | – | 0 | 0.8 | 101 | 108 | 104 | 86.5 | 90.2 | > 10 | 114 | 97.9 | 111 | 106 | 120 | > 10
Cc1cccc(C)c1NC1=NCCCS1 [xylazine] | 105 | 101 | 98.7 | 104 | 92.1 | 94.4 | 102 | 92.1 | 114 | 90.2 | > 10 | > 10 | 0 | 0 | – | 0 | 113 | 105 | 106 | 102 | 98.5 | > 10 | – | – | – | – | – | –
COC(=O)[C@@H]1[C@H]2C[C@H]3c4[nH]c5ccccc5c4CCN3C[C@@H]2CC[C@@H]1O [yohimbine] | – | – | – | – | – | 103 | 100 | 113 | 108 | 96.9 | – | > 10 | – | 0 | 0.3 | 0 | 110 | 105 | 101 | 101 | 98.6 | > 10 | 110 | 113 | 110 | 94.5 | 87.4 | > 10
